This note sets out measurements from US10112935B2, “Indazolyl thiadiazolamines and related compounds for inhibition of Rho-associated protein kinase and the treatment of disease” (Lycera Corporation, priority 2015, dated 2018).

Structures are written as SMILES.

The target of assay [1] is GST-tagged human ROCK1 catalytic domain 1-477 (Homo sapiens (Human), UniProt Q13464). As to the kind of experiment: Inhibition of Rho-associated protein kinase isoform 1 (LANCE Ultra ULight-CREBtide FRET kinase assay). Particulars: 30 μM was the highest concentration analyzed. In kind it is biochemical. In outline: (§1)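 Baculovirus-expressed kinase phosphorylated ULight-CREBtide for 90 min at room temperature before the reaction was stopped with 10 mM EDTA. Phospho-substrate was detected by TR-FRET with 1 nM Europium-anti-phospho-CREB (Ser133) antibody after 60 min at room temperature.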
(TR-FRET usually uses a lanthanide donor and a delayed reading to cut background.)

Assay [2] deals with GST-tagged human ROCK2 catalytic domain 1-553 (Homo sapiens (Human), UniProt O75116). As to the kind of experiment: Inhibition of Rho-associated protein kinase isoform 2 (LANCE Ultra ULight-CREBtide FRET kinase assay). It counts as biochemical. Particulars: for IC50: 30 μM was the highest concentration analyzed; for Selectivity for ROCK2 over ROCK1 (IC50 ROCK1 / IC50 ROCK2): selectivity ROCK2 vs ROCK1. In outline: as §1
Chain of GST-tagged human ROCK2 catalytic domain 1-553 (O75116 1-553): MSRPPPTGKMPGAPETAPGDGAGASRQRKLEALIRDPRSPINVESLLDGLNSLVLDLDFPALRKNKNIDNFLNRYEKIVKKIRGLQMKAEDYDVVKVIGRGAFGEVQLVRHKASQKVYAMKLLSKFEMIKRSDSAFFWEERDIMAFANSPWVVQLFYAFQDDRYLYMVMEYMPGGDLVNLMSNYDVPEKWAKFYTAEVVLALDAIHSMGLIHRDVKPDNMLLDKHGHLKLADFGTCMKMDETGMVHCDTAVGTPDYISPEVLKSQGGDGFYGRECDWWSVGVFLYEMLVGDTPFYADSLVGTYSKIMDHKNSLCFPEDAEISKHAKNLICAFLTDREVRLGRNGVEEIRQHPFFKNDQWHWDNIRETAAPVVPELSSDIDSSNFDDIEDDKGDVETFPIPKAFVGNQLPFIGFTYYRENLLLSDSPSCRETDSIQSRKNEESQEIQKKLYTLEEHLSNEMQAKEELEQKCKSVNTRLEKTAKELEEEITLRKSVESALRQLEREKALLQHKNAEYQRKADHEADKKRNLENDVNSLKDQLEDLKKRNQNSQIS

Chain of GST-tagged human ROCK1 catalytic domain 1-477 (Q13464 1-477): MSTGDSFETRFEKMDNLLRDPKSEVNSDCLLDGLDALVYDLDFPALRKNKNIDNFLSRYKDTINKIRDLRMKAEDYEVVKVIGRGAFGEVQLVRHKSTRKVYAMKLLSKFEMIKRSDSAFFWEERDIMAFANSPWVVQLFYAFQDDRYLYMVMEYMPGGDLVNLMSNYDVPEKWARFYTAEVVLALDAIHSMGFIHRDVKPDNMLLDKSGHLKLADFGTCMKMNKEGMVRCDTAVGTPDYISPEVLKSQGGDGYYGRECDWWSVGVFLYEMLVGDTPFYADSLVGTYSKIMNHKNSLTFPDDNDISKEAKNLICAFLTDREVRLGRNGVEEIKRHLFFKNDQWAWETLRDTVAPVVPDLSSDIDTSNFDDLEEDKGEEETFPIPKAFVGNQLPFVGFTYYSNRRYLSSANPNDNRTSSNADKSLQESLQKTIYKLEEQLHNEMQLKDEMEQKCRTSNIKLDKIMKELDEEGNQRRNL

Turning to `Clc1c(Nc2nnc(-c3cncc(-c4ncco4)c3)s2)ccc2[nH]ncc12` [Example 46P], the 50% inhibitory concentration (IC50) – broadly, the concentration that inhibits the measured activity by half – in assay [1] was more than 30 µM. Also, in assay [2], the IC50 was less than 1 µM and the “Selectivity for ROCK2 over ROCK1 (IC50 ROCK1 / IC50 ROCK2)” value (from here on “Selectivity … (IC50 ROCK1 / IC50 ROCK2)”) was more than 100.
For `Nc1cncc(-c2nnc(Nc3ccc4[nH]ncc4c3)s2)c1.O=C(O)C(F)(F)F` [Example 35CS], in that order: less than 1 µM, 1 to 15 µM and less than 5.
For `O=C(Nc1cccc(-c2nnc(Nc3ccc4[nH]ncc4c3)s2)c1)c1cnn(CC(O)CO)c1` (stereo not drawn) [Example 35CG], in that order: less than 1 µM, less than 1 µM and more than 5.
Take `NCCn1cc(C(=O)Nc2cccc(-c3nnc(Nc4ccc5[nH]ncc5c4)s3)c2)cn1` [Example 35CE]: the IC50 in assay [1] is less than 1 µM. In assay [2], the IC50 is less than 1 µM and the “Selectivity … (IC50 ROCK1 / IC50 ROCK2)” value is on record as more than 5.
`CC(C(=O)Nc1cccc(-c2nnc(Nc3ccc4[nH]ncc4c3Cl)s2)c1)c1ccccn1` (stereo not drawn) [Example 35AH] yielded an IC50 in assay [1] of less than 1 µM. Also, in assay [2], the IC50 was less than 1 µM and the “Selectivity … (IC50 ROCK1 / IC50 ROCK2)” value is less than 5.
In assay [1], `CN1CCN(c2cc(-c3nnc(Nc4ccc5[nH]ncc5c4Cl)s3)ccn2)C1=O` [Example 38, 1-(4-(5-((4-Chloro-1H-indazol-5-yl)amino)-1,3,4-thiadiazol-2-yl)pyridin-2-yl)-3-methylimidazolidin-2-one] gave an IC50 of less than 1 µM. In assay [2], the IC50 is less than 1 µM and the “Selectivity … (IC50 ROCK1 / IC50 ROCK2)” value is on record as more than 5.
On to `Cn1cc(C(=O)Nc2cc(F)c(F)c(-c3nnc(Nc4ccc5[nH]ncc5c4)s3)c2)cn1` [Example 35BZ], for which the IC50 in assay [1] is more than 30 µM; in assay [2], less than 1 µM. Moreover, the “Selectivity … (IC50 ROCK1 / IC50 ROCK2)” value in assay [2] is more than 100.
In assay [1], `c1csc(-c2cncc(-c3nnc(Nc4ccc5[nH]ncc5c4)s3)c2)c1` [Example 39D] had a concentration for half-maximal inhibition (IC50) of 1 to 15 µM. Moreover, in assay [2], the concentration for half-maximal inhibition (IC50) was less than 1 µM and the “Selectivity … (IC50 ROCK1 / IC50 ROCK2)” value was more than 5.
Turning to `COc1ccc(CC(=O)Nc2cccc(-c3nnc(Nc4ccc5[nH]ncc5c4Cl)s3)c2)cc1` [Example 35BQ], the IC50 in assay [1] is less than 1 µM. For the same compound, in assay [2], the IC50 was less than 1 µM and the “Selectivity … (IC50 ROCK1 / IC50 ROCK2)” value is on record as more than 5.
`O=C(O)C(F)(F)F.OCCn1ccnc1-c1cccc(-c2nnc(Nc3ccc4[nH]ncc4c3Cl)s2)c1` [Example 45A, 2-(2-(3-(5-((4-Chloro-1H-indazol-5-yl)amino)-1,3,4-thiadiazol-2-yl)phenyl)-1H-imidazol-1-yl)ethan-1-ol 2,2,2-trifluoroacetic Acid Solvate] returned an IC50 in assay [1] of 1 to 15 µM. In addition, in assay [2], the IC50 was less than 1 µM and the “Selectivity … (IC50 ROCK1 / IC50 ROCK2)” value is more than 75.
For `Cn1nccc1C(=O)Nc1cccc(-c2nnc(Nc3ccc4[nH]ncc4c3)s2)c1` [Example A-43], in that order: more than 30 µM, less than 1 µM and more than 100.
For `C=Cc1c(Nc2nnc(-c3cccc(NC(C)=O)c3)s2)ccc2[nH]ncc12.O=C(O)C(F)(F)F` [Example 35K], in that order: 1 to 15 µM, less than 1 µM and more than 5.
For `CC(=O)Nc1cc(F)c(F)c(-c2nnc(Nc3ccc4[nH]ncc4c3)s2)c1` [Example 35CB], in assay [1], the IC50 is more than 30 µM. Further, in assay [2], the IC50 was less than 1 µM and the “Selectivity … (IC50 ROCK1 / IC50 ROCK2)” value is on record as more than 100.
The corresponding values for `O=C1Cc2c(cccc2-c2nnc(Nc3ccc4[nH]ncc4c3Cl)s2)N1` [Example 56D] are more than 30 µM, less than 1 µM and more than 100.
In the case of `O=C(O)C(F)(F)F.O=C(O)c1cc(-c2ncco2)cc(-c2nnc(Nc3ccc4[nH]ncc4c3Cl)s2)c1` [Example 46N], the IC50 in assay [1] and in assay [2] was less than 1 µM each time. Further, the “Selectivity … (IC50 ROCK1 / IC50 ROCK2)” value in assay [2] was more than 5.
Consider `Cn1cc(C(=O)Nc2cc(-c3nnc(Nc4ccc5[nH]ncc5c4Cl)s3)ccc2Br)cn1` [Example 48Y], for which the IC50 was more than 30 µM in assay [1] and less than 1 µM in assay [2]. Further, the “Selectivity … (IC50 ROCK1 / IC50 ROCK2)” value in assay [2] is more than 100.
In assay [1], `CC(C)(C)C(=O)Nc1cccc(-c2nnc(Nc3ccc4[nH]ncc4c3Cl)s2)c1` [Example 35O] yielded an IC50 of less than 1 µM. In assay [2], the IC50 is less than 1 µM and the “Selectivity … (IC50 ROCK1 / IC50 ROCK2)” value is given as more than 5.
On to `CC(=O)Nc1cc(CN2CCN(C)CC2)cc(-c2nnc(Nc3ccc4[nH]ncc4c3Cl)s2)c1.O=C(O)C(F)(F)F` [Example 48B], for which the IC50 in assay [1] is 1 to 15 µM; in assay [2], less than 1 µM. In addition, in assay [2], the “Selectivity … (IC50 ROCK1 / IC50 ROCK2)” value is more than 50.
Consider `Clc1c(Nc2nnc(-c3cccc4c3ncn4CCN3CCOCC3)s2)ccc2[nH]ncc12` [Example 75V], for which the IC50 in assay [1] and in assay [2] was more than 30 µM each time.
Take `O=C(Nc1cc(-c2nnc(Nc3ccc4[nH]ncc4c3Cl)s2)ccn1)c1ccc(F)cc1.O=C(O)C(F)(F)F` [Example 35B]: the IC50 in assay [1] was less than 1 µM. Further, in assay [2], the IC50 is less than 1 µM and the “Selectivity … (IC50 ROCK1 / IC50 ROCK2)” value is given as less than 5.
With `O=C(O)C(F)(F)F.O=C(O)CS(=O)(=O)Nc1cccc(-c2nnc(Nc3ccc4[nH]ncc4c3)s2)c1` [Example 35CD], the IC50 in assay [1] and in assay [2] was 1 to 15 µM each time. For the same compound, the “Selectivity … (IC50 ROCK1 / IC50 ROCK2)” value in assay [2] is listed as less than 5.
In the case of `COc1cccc(-c2nnc(N(CCO)c3ccc4[nH]ncc4c3)s2)c1` [Example 54E], the IC50 in assay [1] and in assay [2] was 15 to 30 µM throughout.
`O=C(Nc1cccc(-c2nnc(Nc3ccc4[nH]ncc4c3)s2)c1)C(O)CO` (stereo not drawn) [Example 35CI] showed an IC50 in assay [1] of less than 1 µM. Besides, in assay [2], the IC50 is less than 1 µM and the “Selectivity … (IC50 ROCK1 / IC50 ROCK2)” value is listed as less than 5.
For `C[C@H](N)C(=O)Nc1cccc(-c2nnc(Nc3ccc4[nH]ncc4c3Cl)s2)c1` [Example 35AA], in assay [1], the IC50 is 1 to 15 µM. Also, in assay [2], the IC50 was less than 1 µM and the “Selectivity … (IC50 ROCK1 / IC50 ROCK2)” value is listed as more than 5.
For `CC(=O)Nc1cc(C(=O)N2CCC(C(=O)O)CC2)cc(-c2nnc(Nc3ccc4[nH]ncc4c3Cl)s2)c1` [Example 48Q], in that order: 1 to 15 µM, less than 1 µM and more than 5.
`O=C(Nc1cccc(-c2nnc(Nc3ccc4[nH]ncc4c3)s2)c1)c1c[nH]cn1` [Example A-49] showed a half-maximal inhibitory concentration (IC50) in assay [1] of more than 30 µM. In assay [2], the IC50 is less than 1 µM and the “Selectivity … (IC50 ROCK1 / IC50 ROCK2)” value is more than 100.
Regarding `O=C(O)c1cccc(-c2nnc(Nc3ccc4[nH]ncc4c3)s2)c1` [Example 35CL], the IC50 in assay [1] lay within 15 to 30 µM; in assay [2] it was 1 to 15 µM.
The compound `Brc1cc(-c2nnc(Nc3ccc4[nH]ncc4c3)s2)c2nccn2c1` [Example 52F] registered an IC50 in assay [1] of more than 30 µM. Moreover, in assay [2], the IC50 is less than 1 µM and the “Selectivity … (IC50 ROCK1 / IC50 ROCK2)” value was more than 100.
With `COc1cccc(-c2cccc(-c3nnc(Nc4ccc5[nH]ncc5c4Cl)s3)c2)n1` [Example 46H], the IC50 in assay [1] is more than 30 µM. Further, in assay [2], the IC50 was less than 1 µM and the “Selectivity … (IC50 ROCK1 / IC50 ROCK2)” value is more than 100.
The corresponding values for `N#Cc1cccc(-c2nnc(Nc3ccc4[nH]ncc4c3Cl)s2)c1` [Example 35Z] are more than 30 µM, less than 1 µM and more than 100.
Consider `CN1C(=O)Cc2cccc(-c3nnc(Nc4ccc5[nH]ncc5c4Cl)s3)c21` [Example 56C], for which, in assay [1], the half-maximal inhibitory concentration (IC50) is 1 to 15 µM. For the same compound, in assay [2], the IC50 was in the range of 1 to 15 µM and the “Selectivity … (IC50 ROCK1 / IC50 ROCK2)” value is reported as less than 5.
Turning to `CC(=O)Nc1cccc(-c2nnc(Nc3ccc4[nH]ncc4c3Cl)s2)c1` [Example 35Y], the IC50 in assay [1] was less than 1 µM. For the same compound, in assay [2], the IC50 is less than 1 µM and the “Selectivity … (IC50 ROCK1 / IC50 ROCK2)” value was more than 5.
`COc1ccc(C(=O)Nc2cccc(-c3nnc(Nc4ccc5[nH]ncc5c4Cl)s3)c2)cc1` [Example 35BS] had an IC50 in assay [1] of less than 1 µM. In assay [2], the IC50 was less than 1 µM and the “Selectivity … (IC50 ROCK1 / IC50 ROCK2)” value is less than 5.
`NCCn1cc(C(=O)Nc2cc(-c3nnc(Nc4ccc5[nH]ncc5c4)s3)ccn2)cn1.O=C(O)C(F)(F)F` [Example 35BV] came in with an IC50 in assay [1] of less than 1 µM. Further, in assay [2], the IC50 is less than 1 µM and the “Selectivity … (IC50 ROCK1 / IC50 ROCK2)” value is recorded as more than 50.
In the case of `Nc1cc(-c2nnc(Nc3ccc4[nH]ncc4c3)s2)ccn1.O=C(O)C(F)(F)F` [Example 35CQ], the IC50 in assay [1] is more than 30 µM; in assay [2], less than 1 µM. For the same compound, in assay [2], the “Selectivity … (IC50 ROCK1 / IC50 ROCK2)” value is recorded as more than 100.
For `CC(=O)Nc1cccc(-c2nnc(Nc3ccc4[nH]ncc4c3C)s2)c1` [Example 35J], in that order: 1 to 15 µM, less than 1 µM and more than 5.
As for `Cn1cnc2c(-c3nnc(Nc4ccc5[nH]ncc5c4)s3)cccc21` [Example A-15], the IC50 in assay [1] and in assay [2] was less than 1 µM in each case. Further, the “Selectivity … (IC50 ROCK1 / IC50 ROCK2)” value in assay [2] is less than 5.
`CN(C)Cc1cc(-c2ncco2)cc(-c2nnc(Nc3ccc4[nH]ncc4c3Cl)s2)c1` [Example 75P] gave an IC50 in assay [1] of 1 to 15 µM. In assay [2], the IC50 was less than 1 µM and the “Selectivity … (IC50 ROCK1 / IC50 ROCK2)” value is listed as more than 5.
Consider `Clc1c(Nc2nnc(-c3cccc4[nH]c(-c5cccs5)nc34)s2)ccc2[nH]ncc12` [Example 56B], for which the IC50 in assay [1] is more than 30 µM. In assay [2], the IC50 was less than 1 µM and the “Selectivity … (IC50 ROCK1 / IC50 ROCK2)” value is more than 100.
In the case of `COc1ccc(NC(C)=O)cc1-c1nnc(Nc2ccc3[nH]ncc3c2Cl)s1` [Example 48J], the IC50 in assay [1] is less than 1 µM. Further, in assay [2], the IC50 is less than 1 µM and the “Selectivity … (IC50 ROCK1 / IC50 ROCK2)” value is more than 5.
